For orientation: Kd means the equilibrium constant for the complex coming apart.

The test deals with T1, estrus urinary lipocalin protein (EULP).
T1 construct: gene PMP2; native, purified from female rat urine by Sephadex G-50 gel filtration; printed peptides MSNKFL, KFLGTWKLT, KLTSSENFD, NFDEYMKAL, LGTRSLGNL, LAGPTVIIS, ITIRTESGF, GFKNTEISF, FEETTADNR, RKTKSTVTL, KSTVTLAGG, NGNETTIKR, SVVCTRIYE
Put plainly: fluorescence binding of 2-naphthol probe. Details: species or system Rattus rattus. The following applies: 10 mM phosphate buffer pH 7.2, room temperature; fluorescent probe.

On to `Oc1ccc2ccccc2c1` [2-naphthol], for which binding was put at a Kd of 0.42 ± 0.06 µM.
